Results as given in ChEMBL document CHEMBL3045077, “Intravenous pharmacokinetics and oral bioavailability of biochanin A in female rats” (Med Chem Res, 2011).

Columns and labels:
Type in all cases: ADME, organism-based
[1] = Apparent elimination half life in Rattus norvegicus Sprague-Dawley (rat) at 50 mg/kg, po; parameters: dose 50 mg/kg, route oral; details: in vivo, read-out: betat1/2(app) (converted)
[2] = Total clearance in Rattus norvegicus Sprague-Dawley (rat) at 5 mg/kg, iv; parameters: dose 5 mg/kg, route intravenous; details: in vivo
[3] = Apparent elimination half life in Rattus norvegicus Sprague-Dawley (rat) at 5 mg/kg, iv; parameters: dose 5 mg/kg, route intravenous; details: in vivo, read-out: betat1/2(app) (converted)
[4] = Apparent volume of distribution in Rattus norvegicus Sprague-Dawley (rat) at 5 mg/kg, iv; parameters: dose 5 mg/kg, route intravenous; details: in vivo, read-out: Vd(app)

half-life [1]: 824 min
clearance [2]: 262 mL/min/kg
half-life [3]: 60 min
Vd [4]: 10.6 L/kg
Structure (SMILES): COc1ccc(-c2coc3cc(O)cc(O)c3c2=O)cc1 [BIOCHANIN]
